Data on 37 compounds can be found in PubChem BioAssay (NCI).

The experiment relates to MDA-MB-468 breast. In words: DTP human tumour cell line panel, 48 h.

The GI50 is the concentration that inhibits growth by half. For orientation: TGI means the concentration at which net growth stops. Low readings indicate greater sensitivity of the cells, high ones lower sensitivity of the cells.

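Assay format: 96-well plates, 48-hour exposure. GI50 = concentration required for 50% inhibition of growth. TGI: total growth inhibition.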 *1 amine or outer side, *2 acyl side, *3 side chain or, on linkers, in order; H or OH if unused. Where a SMILES comes first, the peptide text is derived from it. [ ]: non-standard residue; d: D form. ξ: configuration not given here. X21 = CC[C@@H](C)C(N[*:1])C(=O)[*:2]; ξR = N=C(N)NCCCC(N)C(=O)O; ξI = CCC(C)C(N)C(=O)O; ξL = CC(C)CC(N)C(=O)O; ξK = NCCCCC(N)C(=O)O; ξV = CC(C)C(N)C(=O)O; ξA = CC(N)C(=O)O Where only a bound is given, the exact number is not on record here.

For the compound `NC1=Nc2cc(OCCCN3Cc4ccccc4C3)c(OCC3CC3)cc2C12CCCC2`, the GI50 was 1040 nM and the concentration for total growth inhibition (TGI) is 2480 nM.

Turning to `C=C1C(=O)O[C@H]2[C@H]1CC/C(COC(=O)c1ccccc1)=C\CC[C@@]1(C)O[C@@H]21`, the GI50 is 464 nM and the concentration for total growth inhibition (TGI) is 2590 nM.

Consider `COc1ccccc1/C=C/C(=O)/C=C/c1ccccc1OC`, for which the GI50 is 1270 nM and the total growth inhibition concentration (TGI) was found to be 2670 nM.

Consider `NC1CCC(N[C@@H]2C[C@H]2c2ccccc2)CC1` (some centres undefined), for which the GI50 was greater than 100000 nM and the TGI was greater than 100000 nM.

In the case of `O=C(Nc1ccccc1)Nc1cccc(Oc2nnc(Cl)c3ccccc23)c1`, the GI50 is 1680 nM and the concentration for total growth inhibition (TGI) amounted to 7580 nM.

In the case of `CCC(C)C1NC(=O)C(CC(C)C)NC(=O)C(C)NC(=O)C(C(C)C)NC(=O)C(CCCCN)NC(=O)C(CC(C)C)NC(=O)C(C(C)C)NC(=O)[C@H](C)NC(=O)C(C(C)CC)NC(=O)C(CCCN=C(N)N)NC(=O)C(CCCCN)NC(=O)C(CCCN=C(N)N)NC(=O)C(CCCCN)NC(=O)C([C@H](C)CC)NC(=O)C(CCCCN)NC1=O` (some centres undefined) (cyclo(A[ξV][ξL][ξK][ξV][ξA][ξL][ξI][ξK][X21][ξK][ξR][ξK][ξR][ξI])), the GI50 is 361 nM and the TGI came to 1420 nM.

In the case of `C[C@H](N)C(=O)N1C[C@H](CCCB(O)O)[C@](N)(C(=O)O)C1`, the GI50 is greater than 100000 nM and the TGI was greater than 100000 nM.

`CCCN(CCSSCCNc1nc(N(C)O)nc(N(C)O)n1)c1nc(N(C)O)nc(N(C)O)n1`: the GI50 was 2150 nM and the total growth inhibition concentration (TGI) was determined as 8860 nM.

`CC(C)Nc1ncc2cc(Oc3ccc(F)cc3F)c(=O)n(C)c2n1`: the GI50 is greater than 23000 nM and the TGI is greater than 25000 nM.

`COc1ccc2c(c1)/C(=C/c1cc(OC)c(OC)c(OC)c1)C(=O)N2C`: the GI50 is 14600 nM and the TGI is greater than 100000 nM.

Regarding `Nc1ncnc2c1cnn2Cc1ccc(Cl)cc1`, the GI50 was 44700 nM and the concentration for total growth inhibition (TGI) was greater than 100000 nM.

As for `C#C[C@]1(O)CC[C@H]2[C@@H]3CC=C4c5sc(N6CCN(C)CC6)nc5CC[C@]4(C)[C@H]3CC[C@@]21C`, the GI50 was 2260 nM and the total growth inhibition concentration (TGI) came out at 7600 nM.

For `Oc1ccc(C#CCOc2ccccc2)cc1CNCCN(Cc1ccccn1)Cc1ccccn1`, the GI50 is 1730 nM and the total growth inhibition concentration (TGI) was 4170 nM.

For the compound `NC(=O)c1ccc2nc3c(n2c1)C(=O)C(=O)c1ccccc1-3`, the GI50 is 587 nM and the total growth inhibition concentration (TGI) amounted to 1920 nM.

Take `O=C(Nc1cccc(-n2cc(-c3ccncc3)c(-c3ccc(O)c(Cl)c3)n2)c1)Nc1cccc(C(F)(F)F)c1`: the GI50 is 1850 nM and the total growth inhibition concentration (TGI) amounted to 6170 nM.

Regarding `Cc1cn(-c2cc(NC(=O)c3cncc(C#Cc4cnc5ccc(O[C@@H]6CCOC6)nn45)c3)cc(C(F)(F)F)c2)cn1`, the GI50 was 99.8 nM and the TGI stood at 432 nM.

With `CN1CCN(c2ccc(C(=O)Nc3cc(-c4cccc(NS(=O)(=O)c5ccccc5)c4)[nH]n3)cc2)CC1`, the GI50 is 4840 nM and the TGI was 14000 nM.

As for `O=C(COc1cccc(/C=C2\CSc3ccccc3C2=O)c1)c1ccc(Cl)cc1`, the GI50 is 1500 nM and the TGI came to 3450 nM.

With `C=C1C(=O)O[C@H]2[C@H]1CC/C(Cn1cc(-c3cc(C)c(C)cc3C)nn1)=C\CC[C@@]1(C)O[C@@H]21`, the GI50 is 530 nM and the concentration for total growth inhibition (TGI) was found to be 2060 nM.

With `CCSc1nnc(-c2ccc3ccccc3c2O)n1-c1ccc(Cl)cc1`, the GI50 was 3590 nM and the concentration for total growth inhibition (TGI) is greater than 100000 nM.

Take `COc1cc(OC)c(C(=O)/C=C/c2cccc(OC(C)=O)c2)cc1CC=C(C)C`: the GI50 was 1890 nM and the TGI came to 9720 nM.

On to `Cc1cc2cn3c4cccnc4[nH]c(=O)c3c2cc1C`, for which the GI50 was 1390 nM and the total growth inhibition concentration (TGI) is 2830 nM.

For `CCOC(=O)c1cc(C(=O)c2cc(OC)c(OC)c(OC)c2)n2ccccc12`, the GI50 is 93.9 nM and the total growth inhibition concentration (TGI) was found to be 89600 nM.

Take `N#C/C(=C\c1ccc(Br)cc1)n1nnc2ccccc21`: the GI50 was 566 nM and the TGI came to 2220 nM.

As to `OCc1ccc(N(CCN2CCCC2)Cc2ccc(F)cc2)cc1Cl`, the GI50 is 1200 nM and the TGI turned out to be 3280 nM.

With `Cn1c(=O)c(Oc2ccccc2)cc2cnc(NC3CCOCC3)nc21`, the GI50 was greater than 25000 nM and the total growth inhibition concentration (TGI) is greater than 25000 nM.

As for `CCOC(=O)Nc1nc2c(C)cccc2s1`, the GI50 is 28700 nM and the concentration for total growth inhibition (TGI) was greater than 100000 nM.

As to `CN(C)CCCn1c2nc(=O)[nH]c(=O)c-2nc2cc(Cl)c(Cl)cc21`, the GI50 is 772 nM and the TGI is 2130 nM.

On to `C=C1C[C@@]2(C)C(CC[C@]3(C)C2CC=C2C4CC(C)(C)C[C@@H](OC(=O)/C(C)=C\C)[C@]4(C(=O)O)CC[C@]23C)C(C)(C)C1=O` (some centres undefined), for which the GI50 is 2020 nM and the TGI worked out at 5910 nM.

Take `Clc1ccc(Nc2ccnc(NCCCNc3ccnc4cc(Cl)ccc34)n2)cc1`: the GI50 was 1490 nM and the concentration for total growth inhibition (TGI) came out at 3050 nM.

Regarding `CCNCCCn1c2c(c3ccc([N+](=O)[O-])cc3c1=O)C(=O)c1cc(OC)cnc1-2`, the GI50 is 41.6 nM and the TGI turned out to be 210 nM.

As to `COc1ccc2c(c1)C1(C(=O)N2)C(C#N)=C(c2ccccc2)Nc2c1c(-c1ccccc1)nn2-c1ccccc1` (centres undefined), the GI50 is 2930 nM and the TGI amounted to 9050 nM.

As to `Cc1[nH]nc2c1N=C(c1ccccc1Cl)c1cc([N+](=O)[O-])ccc1N2`, the GI50 was 242 nM and the concentration for total growth inhibition (TGI) was greater than 16800 nM.

In the case of `Cc1ccc(Sc2sc(-c3ccccc3)nc2[P+](c2ccccc2)(c2ccccc2)c2ccccc2)cc1`, the GI50 is 222 nM and the TGI was found to be 674 nM.

For the compound `CNCCCNCCCN1C(=O)c2ccc3c4c(ccc(c24)C1=O)C(=O)N(CCCNCc1ccccc1OC)C3=O`, the GI50 was 1000 nM and the concentration for total growth inhibition (TGI) was 2770 nM.

For the compound `COc1ccc(-c2csc(NC(=O)c3cc(O)c(O)c(O)c3)n2)cc1`, the GI50 was 6940 nM and the TGI amounted to 29500 nM.

For the compound `Nc1ccccc1NC(=O)c1ccc(NC(=O)C/C=C/c2cccnc2)cn1`, the GI50 was 982 nM and the total growth inhibition concentration (TGI) was 13300 nM.
